Results published in patent EP2608671B1, “COMPOUNDS FOR TREATMENT OF CANCER” (Gtx, Inc., priority 2010, dated 2012).
Like-named read-outs stand apart in the source and are kept apart here.

Assays:
PPC-1 = assay: cells; details: Homo sapiens, PPC-1, 96 h
B16-F1 = assay: SRB cell growth inhibition (cytotoxicity) assay; assay type: cell-based, mouse
Excerpt: (§1) The only compounds which belong to the invention are the ones falling under the scope of formula (XI).

DU 145 = assay: cells; details: Homo sapiens, DU-145, 96 h
WM-164 = assay: SRB cell growth inhibition (cytotoxicity) assay; assay type: cell-based, human; details: Homo sapiens
A375 = assay: SRB cell growth inhibition (cytotoxicity) assay; assay type: cell-based, human
PC-3 = assay: cells; details: Homo sapiens, PC-3, 96 h
Excerpt: as §1
Cells were stained with SRB solution.
Cells. […] Cells between the third and fifth passages were used for experiments.
Cell growth inhibition studies. […] Cells were stained with sulphorhodamine B (SRB) solution.

LNCaP = assay: cells; details: Homo sapiens, 96 h
[1] = read-out: IC50 ± SEM (nM), PPC-1
[2] = read-out: IC50 ± SEM (nM), DU 145
[3] = read-out: IC50 ± SEM (nM), PC-3
[4] = read-out: IC50 ± SEM (nM), LNCaP
[5] = Mus musculus, B16-F1; read-out: IC50 ± SEM (nM), B16-F1
[6] = WM164, SRB assay, 96 h, Table 2, read-out: IC50 ± SEM (nM), WM-164
[7] = Homo sapiens, A-375, 96 h; read-out: IC50 ± SEM (nM), A375
[8] = Mus musculus; B16-F1 melanoma cells, 48 h, SRB; read-out: IC50 ± SEM (nM) B16-F1
[9] = read-out: IC50 ± SEM (nM) Du 145
[10] = WM164 melanoma cells, 48 h, SRB, read-out: IC50 ± SEM (nM) WM164
[11] = Homo sapiens, A-375; A375 melanoma cells, 48 h, SRB; read-out: IC50 ± SEM (nM) A375
[12] = Mus musculus, B16-F1; SRB, 48 h; Table 11; read-out: IC50 (nM), B16-F1
[13] = WM164, SRB, 48 h, Tables 11, 12, read-out: IC50 (nM), WM164
[14] = Homo sapiens, A-375; SRB, 48 h; Table 11; read-out: IC50 (nM), A375

| Compound | IC50 (PPC-1; [1]) [nM] | IC50 (PC-3; [3]) [nM] | IC50 (LNCaP; [4]) [nM] | IC50 (B16-F1; [8]) [nM] | IC50 (DU 145; [9]) [nM] | IC50 (WM-164; [10]) [nM] | IC50 (A375; [11]) [nM] | further results |
| --- | --- | --- | --- | --- | --- | --- | --- | --- |
| COc1cc(/C=C/c2csc(-c3ccccc3)n2)cc(OC)c1OC [3b, (E)-2-Phenyl-4-(3,4,5-trimethoxystyryl)thiazole] | > 10000 | > 10000 | > 10000 | – | – | – | – | IC50 (B16-F1; Mus musculus, B16-F1, read-out: IC50 ± SEM (nM), B16-F1): 32800 ± 13000 nM; IC50 (DU 145; [2]): > 10000 nM; IC50 (WM-164; WM164, 96 h, read-out: IC50 ± SEM (nM), WM-164): 30800 ± 12000 nM; IC50 (A375; Homo sapiens, A-375, 96 h, read-out: IC50 ± SEM (nM), A375): > 10000 nM |
| COc1cc(Sc2cccc(-c3ccccc3)c2)cc(OC)c1OC [4a, Biphenyl-3-yl(3,4,5-trimethoxyphenyl)sulfane] | 2300 ± 100 | > 10000 | 300 ± 200 | – | – | – | – | IC50 (B16-F1; [5]): 2400 ± 900 nM; IC50 (DU 145; [2]): > 10000 nM; IC50 (WM-164; [6]): 2000 nM; IC50 (A375; [7]): 11600 ± 400 nM |
| COc1cc(S(=O)(=O)c2cccc(-c3ccccc3)c2)cc(OC)c1OC [4b, 3-(3,4,5-Trimethoxyphenylsulfonyl)biphenyl] | > 10000 | > 10000 | > 10000 | – | – | – | – | IC50 (B16-F1; [5]): > 10000 nM; IC50 (DU 145; [2]): > 10000 nM; IC50 (WM-164; [6]): > 10000 nM; IC50 (A375; [7]): > 10000 nM |
| COc1cc([S+]([O-])c2cccc(-c3ccccc3)c2)cc(OC)c1OC (stereo not shown) [4c, 3-(3,4,5-Trimethoxyphenylsulfinyl)biphenyl] | > 10000 | > 10000 | > 10000 | – | – | – | – | IC50 (B16-F1; [5]): > 10000 nM; IC50 (DU 145; [2]): > 10000 nM; IC50 (WM-164; [6]): > 10000 nM; IC50 (A375; [7]): > 10000 nM |
| COc1cc(NS(=O)(=O)c2cccc(-c3ccccc3)c2)cc(OC)c1OC [4d, N-(3,4,5-Trimethoxyphenyl)biphenyl-3-sulfonamide] | > 10000 | > 10000 | > 10000 | – | – | – | – | IC50 (B16-F1; [5]): > 10000 nM; IC50 (DU 145; [2]): > 10000 nM; IC50 (WM-164; [6]): > 10000 nM; IC50 (A375; [7]): > 10000 nM |
| COc1ccc(C(=O)c2cn(S(=O)(=O)c3ccccc3)c(-c3ccccc3)n2)cc1 [11ab, (4-methoxyphenyl)(2-phenyl-1-(phenylsulfonyl)-1H-imidazol-4-yl)methanone] | > 10000 | > 10000 | > 10000 | > 10000 | > 10000 | > 10000 | > 10000 | – |
| COc1cccc(C(=O)c2cn(S(=O)(=O)c3ccccc3)c(-c3ccccc3)n2)c1 [11ac, (3-methoxyphenyl)(2-phenyl-1-(phenylsulfonyl)-1H-imidazol-4-yl)methanone] | > 10000 | > 10000 | > 10000 | > 10000 | > 10000 | > 10000 | > 10000 | – |
| O=C(c1ccc(F)cc1)c1cn(S(=O)(=O)c2ccccc2)c(-c2ccccc2)n1 [11af, (4-fluorophenyl)(2-phenyl-1-(phenylsulfonyl)-1H-imidazol-4-yl)methanone] | 575 | 2230 | 573 | 946 ± 86 | 846 | 596 ± 61 | 630 ± 72 | – |
| Cc1ccc(C(=O)c2cn(S(=O)(=O)c3ccccc3)c(-c3ccccc3)n2)cc1 [11ah, (2-phenyl-1-(phenylsulfonyl)-1H-imidazol-4-yl)(p-tolyl)methanone] | > 10000 | > 10000 | > 10000 | > 10000 | > 10000 | > 10000 | > 10000 | – |
| Cc1ccc(-c2nc(C(=O)c3ccc(F)cc3)cn2S(=O)(=O)c2ccccc2)cc1 [11db, (4-fluorophenyl)(1-(phenylsulfonyl)-2-(p-tolyl)-1H-imidazol-4-yl)methanone] | 57 ± 1 | 80 ± 1 | 55 ± 3 | 287 ± 31 | 80 ± 1 | 107 ± 14 | 113 ± 14 | – |
| COc1cc(C(=O)c2cn(S(=O)(=O)c3ccccc3)c(-c3cc(OC)c(OC)c(OC)c3)n2)cc(OC)c1OC [11ea, (1-(phenylsulfonyl)-2-(3,4,5-trimethoxyphenyl)-1H-imidazol-4-yl)(3,4,5-trimethoxyphenyl)methanone] | > 10000 | > 10000 | > 10000 | > 10000 | > 10000 | > 10000 | > 10000 | – |
| COc1cc(-c2nc(C(=O)c3ccc(F)cc3)cn2S(=O)(=O)c2ccccc2)cc(OC)c1OC [11eb, (4-fluorophenyl)(1-(phenylsulfonyl)-2-(3,4,5-trimethoxyphenyl)-1H-imidazol-4-yl)methanone] | > 10000 | > 10000 | > 10000 | > 10000 | > 10000 | > 10000 | 3840 | – |
| COc1cc(C(=O)c2cn(S(=O)(=O)c3ccccc3)c(-c3ccc(N(C)C)cc3)n2)cc(OC)c1OC [11ga, (2-(4-(dimethylamino)phenyl)-1-(phenylsulfonyl)-1H-imidazol-4-yl)(3,4,5-trimethoxyphenyl)methanone] | 72 ± 0.4 | 93 ± 6 | 62 ± 2 | 1200 ± 90 | 99 ± 2 | 308 ± 32 | 162 ± 13 | – |
| CN(C)c1ccc(-c2nc(C(=O)c3ccc(F)cc3)cn2S(=O)(=O)c2ccccc2)cc1 [11gb, (2-(4-(dimethylamino)phenyl)-1-(phenylsulfonyl)-1H-imidazol-4-yl)(4-fluorophenyl)methanone] | 48 ± 0.3 | 83 ± 3 | 56 ± 6 | 242 ± 26 | 74 ± 0.5 | 56 ± 4 | 55 ± 7 | – |
| COc1ccc(-c2nc(C(=O)c3cc(OC)c(OC)c(OC)c3)cn2S(=O)(=O)c2ccccc2)cc1OC [11ha, (2-(3,4-dimethoxyphenyl)-1-(phenylsulfonyl)-1H-imidazol-4-yl)(3,4,5-trimethoxyphenyl)methanone] | 117 ± 2 | 197 ± 9 | 114 ± 6 | 970 ± 68 | 144 ± 29 | 139 ± 15 | 192 ± 15 | – |
| COc1ccc(-c2nc(C(=O)c3ccc(F)cc3)cn2S(=O)(=O)c2ccccc2)cc1OC [11hb, (2-(3,4-dimethoxyphenyl)-1-(phenylsulfonyl)-1H-imidazol-4-yl)(4-fluorophenyl)methanone] | 1440 ± 49 | 10000 | 1920 ± 77 | 2000 ± 400 | 3310 | 1400 ± 30 | 960 ± 59 | – |
| COc1cc(C(=O)c2cn(S(=O)(=O)c3ccccc3)c(-c3ccccc3C(F)(F)F)n2)cc(OC)c1OC [11ia, (1-(phenylsulfonyl)-2-(2-(trifluoromethyl)phenyl)-1H-imidazol-4-yl)(3,4,5-trimethoxyphenyl)methanone] | > 10000 | > 10000 | > 10000 | > 10000 | > 10000 | > 10000 | > 10000 | – |
| O=C(c1ccc(F)cc1)c1cn(S(=O)(=O)c2ccccc2)c(-c2ccccc2C(F)(F)F)n1 [11ib, (1-(phenylsulfonyl)-2-(2-(trifluoromethyl)phenyl)-1H-imidazol-4-yl)(4-fluorophenyl)methanone] | > 10000 | > 10000 | > 10000 | > 10000 | > 10000 | > 10000 | > 10000 | – |
| COc1ccc(C(=O)c2c[nH]c(-c3ccccc3)n2)cc1 [12ab, (4-methoxyphenyl)(2-phenyl-1H-imidazol-4-yl)methanone] | – | – | – | – | – | – | – | IC50 (PPC-1; read-out: IC50 (nM), PPC-1): > 10000 nM; IC50 (B16-F1; [12]): > 10000 nM; IC50 (DU 145; read-out: IC50 (nM), Du 145): > 10000 nM; IC50 (WM-164; [13]): > 10000 nM; IC50 (A375; [14]): > 10000 nM; IC50 (PC-3; read-out: IC50 (nM), PC-3): > 10000 nM; IC50 (LNCaP; read-out: IC50 (nM), LNCaP): > 10000 nM |
| COc1cccc(C(=O)c2c[nH]c(-c3ccccc3)n2)c1 [12ac, (3-methoxyphenyl)(2-phenyl-1H-imidazol-4-yl)methanone] | – | – | – | – | – | – | – | IC50 (PPC-1; read-out: IC50 (nM), PPC-1): > 10000 nM; IC50 (B16-F1; [12]): > 10000 nM; IC50 (DU 145; read-out: IC50 (nM), Du 145): > 10000 nM; IC50 (WM-164; [13]): > 10000 nM; IC50 (A375; [14]): > 10000 nM; IC50 (PC-3; read-out: IC50 (nM), PC-3): > 10000 nM; IC50 (LNCaP; read-out: IC50 (nM), LNCaP): > 10000 nM |
| COc1cc(OC)cc(C(=O)c2c[nH]c(-c3ccccc3)n2)c1 [12ad, (3,5-dimethoxyphenyl)(2-phenyl-1 H-imidazol-4-yl)methanone] | – | – | – | – | – | – | – | IC50 (PPC-1; read-out: IC50 (nM), PPC-1): 2130 nM; IC50 (B16-F1; [12]): 5400 nM; IC50 (DU 145; read-out: IC50 (nM), Du 145): 2590 nM; IC50 (WM-164; [13]): 2100 nM; IC50 (A375; [14]): 2800 nM; IC50 (PC-3; read-out: IC50 (nM), PC-3): 3270 nM; IC50 (LNCaP; read-out: IC50 (nM), LNCaP): 3610 nM |
| O=C(c1ccc(F)cc1)c1c[nH]c(-c2ccccc2)n1 [12af, (4-fluorophenyl)(2-phenyl-1H-imidazol-4-yl)methanone] | – | – | – | – | – | – | – | IC50 (PPC-1; read-out: IC50 (nM), PPC-1): 575 nM; IC50 (B16-F1; [12]): 930 nM; IC50 (DU 145; read-out: IC50 (nM), Du 145): 846 nM; IC50 (WM-164; [13]): 630 nM; IC50 (A375; [14]): 580 nM; IC50 (PC-3; read-out: IC50 (nM), PC-3): 2200 nM; IC50 (LNCaP; read-out: IC50 (nM), LNCaP): 613 nM |
